Reference: the supplement of paper PMC10307832

What was measured:
Experiment in all cases: relative viability (nuclei count vs DMSO), 5 days (fraction); higher = more cells survive
Ibrutinib + Navitoclax = compound: C=CC(=O)N1CCC[C@@H](n2nc(-c3ccc(Oc4ccccc4)cc3)c3c(N)ncnc32)C1 [Ibrutinib] + CC1(C)CCC(c2ccc(Cl)cc2)=C(CN2CCN(c3ccc(C(=O)NS(=O)(=O)c4ccc(N[C@H](CCN5CCOCC5)CSc5ccccc5)c(S(=O)(=O)C(F)(F)F)c4)cc3)CC2)C1 [Navitoclax] (partner 0.5 µM)
Summary of the method: (§1)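 The day after seeding in 1536-well plates, lung cancer cell lines were treated by pin tool with a single drug, or with a fixed anchor-drug dose together with five library-drug doses (not always all listed) in √10 steps. After 5 days, a combined fix-and-stain solution (final 0.05% Triton X-100, 1% formaldehyde, 1 ug/ml Hoechst) was added. Nuclei counted on 4× images gave relative viability as treated counts over vehicle counts, reported as the median of duplicate plates.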

Ibrutinib + OSI-027 = compound: C=CC(=O)N1CCC[C@@H](n2nc(-c3ccc(Oc4ccccc4)cc3)c3c(N)ncnc32)C1 [Ibrutinib] + COc1cccc2cc(-c3nc([C@H]4CC[C@H](C(=O)O)CC4)n4ncnc(N)c34)[nH]c12 [OSI-027] (partner 0.5 µM)
Summary of the method: as §1

BMX-IN-1 + Palbociclib = compound: C=CC(=O)Nc1cc(-n2c(=O)ccc3cnc4ccc(-c5ccc(NS(C)(=O)=O)cc5)cc4c32)ccc1C [BMX-IN-1] + CC(=O)c1c(C)c2cnc(Nc3ccc(N4CCNCC4)cn3)nc2n(C2CCCC2)c1=O [Palbociclib] (partner 0.5 µM)
Summary of the method: as §1

PAC-1 + Pemetrexed = compound: C=CCc1cccc(/C=N/NC(=O)CN2CCN(Cc3ccccc3)CC2)c1O [PAC-1] + Nc1nc2[nH]cc(CCc3ccc(C(=O)N[C@@H](CCC(=O)O)C(=O)O)cc3)c2c(=O)[nH]1 [Pemetrexed] (partner 0.2 µM)
Summary of the method: as §1

## NCI-H1650
Ibrutinib + Navitoclax; first compound 0.005 µM
  relative viability: 0.998
Ibrutinib + Navitoclax; first compound 0.01581 µM
  relative viability: 0.932
Ibrutinib + Navitoclax; first compound 0.05 µM
  relative viability: 1.24
Ibrutinib + Navitoclax; first compound 0.1581 µM
  relative viability: 1.25
Ibrutinib + Navitoclax; first compound 0.5 µM
  relative viability: 1.1
Ibrutinib + OSI-027; first compound 0.005 µM
  relative viability: 0.554
Ibrutinib + OSI-027; first compound 0.01581 µM
  relative viability: 0.506
Ibrutinib + OSI-027; first compound 0.05 µM
  relative viability: 0.452
Ibrutinib + OSI-027; first compound 0.1581 µM
  relative viability: 0.59
Ibrutinib + OSI-027; first compound 0.5 µM
  relative viability: 0.482
BMX-IN-1 + Palbociclib; first compound 0.02 µM
  relative viability: 0.307
BMX-IN-1 + Palbociclib; first compound 0.2 µM
  relative viability: 0.313
BMX-IN-1 + Palbociclib; first compound 0.6325 µM
  relative viability: 0.32
BMX-IN-1 + Palbociclib; first compound 2 µM
  relative viability: 0.333
PAC-1 + Pemetrexed; first compound 0.02 µM
  relative viability: 0.365
PAC-1 + Pemetrexed; first compound 0.06325 µM
  relative viability: 0.387
PAC-1 + Pemetrexed; first compound 0.2 µM
  relative viability: 0.321
PAC-1 + Pemetrexed; first compound 2 µM
  relative viability: 0.387

## NCI-H1651
Ibrutinib + Navitoclax; first compound 0.005 µM
  relative viability: 0.853
Ibrutinib + Navitoclax; first compound 0.01581 µM
  relative viability: 1.03
Ibrutinib + Navitoclax; first compound 0.05 µM
  relative viability: 1.12
Ibrutinib + Navitoclax; first compound 0.1581 µM
  relative viability: 1
Ibrutinib + Navitoclax; first compound 0.5 µM
  relative viability: 0.837
Ibrutinib + OSI-027; first compound 0.005 µM
  relative viability: 0.624
Ibrutinib + OSI-027; first compound 0.01581 µM
  relative viability: 0.663
Ibrutinib + OSI-027; first compound 0.05 µM
  relative viability: 0.792
Ibrutinib + OSI-027; first compound 0.1581 µM
  relative viability: 0.685
Ibrutinib + OSI-027; first compound 0.5 µM
  relative viability: 0.768
BMX-IN-1 + Palbociclib; first compound 0.02 µM
  relative viability: 0.598
BMX-IN-1 + Palbociclib; first compound 0.2 µM
  relative viability: 0.559
BMX-IN-1 + Palbociclib; first compound 0.6325 µM
  relative viability: 0.511
BMX-IN-1 + Palbociclib; first compound 2 µM
  relative viability: 0.533
PAC-1 + Pemetrexed; first compound 0.02 µM
  relative viability: 0.596
PAC-1 + Pemetrexed; first compound 0.06325 µM
  relative viability: 0.538
PAC-1 + Pemetrexed; first compound 0.2 µM
  relative viability: 0.525
PAC-1 + Pemetrexed; first compound 2 µM
  relative viability: 0.712

## NCI-H1666
Ibrutinib + Navitoclax; first compound 0.005 µM
  relative viability: 0.762
Ibrutinib + Navitoclax; first compound 0.01581 µM
  relative viability: 0.806
Ibrutinib + Navitoclax; first compound 0.05 µM
  relative viability: 0.521
Ibrutinib + Navitoclax; first compound 0.1581 µM
  relative viability: 1.06
Ibrutinib + Navitoclax; first compound 0.5 µM
  relative viability: 0.451
Ibrutinib + OSI-027; first compound 0.005 µM
  relative viability: 0.89
Ibrutinib + OSI-027; first compound 0.01581 µM
  relative viability: 0.747
Ibrutinib + OSI-027; first compound 0.05 µM
  relative viability: 0.737
Ibrutinib + OSI-027; first compound 0.1581 µM
  relative viability: 0.847
Ibrutinib + OSI-027; first compound 0.5 µM
  relative viability: 0.621
BMX-IN-1 + Palbociclib; first compound 0.02 µM
  relative viability: 0.64
BMX-IN-1 + Palbociclib; first compound 0.2 µM
  relative viability: 0.672
BMX-IN-1 + Palbociclib; first compound 0.6325 µM
  relative viability: 0.606
BMX-IN-1 + Palbociclib; first compound 2 µM
  relative viability: 0.628
PAC-1 + Pemetrexed; first compound 0.02 µM
  relative viability: 0.643
PAC-1 + Pemetrexed; first compound 0.06325 µM
  relative viability: 0.889
PAC-1 + Pemetrexed; first compound 0.2 µM
  relative viability: 0.849
PAC-1 + Pemetrexed; first compound 2 µM
  relative viability: 0.799

## NCI-H1734
Ibrutinib + Navitoclax; first compound 0.005 µM
  relative viability: 0.839
Ibrutinib + Navitoclax; first compound 0.01581 µM
  relative viability: 0.821
Ibrutinib + Navitoclax; first compound 0.05 µM
  relative viability: 0.794
Ibrutinib + Navitoclax; first compound 0.1581 µM
  relative viability: 0.869
Ibrutinib + Navitoclax; first compound 0.5 µM
  relative viability: 0.726
Ibrutinib + OSI-027; first compound 0.005 µM
  relative viability: 0.448
Ibrutinib + OSI-027; first compound 0.01581 µM
  relative viability: 0.528
Ibrutinib + OSI-027; first compound 0.05 µM
  relative viability: 0.611
Ibrutinib + OSI-027; first compound 0.1581 µM
  relative viability: 0.665
Ibrutinib + OSI-027; first compound 0.5 µM
  relative viability: 0.564
BMX-IN-1 + Palbociclib; first compound 0.02 µM
  relative viability: 0.37
BMX-IN-1 + Palbociclib; first compound 0.2 µM
  relative viability: 0.375
BMX-IN-1 + Palbociclib; first compound 0.6325 µM
  relative viability: 0.386
BMX-IN-1 + Palbociclib; first compound 2 µM
  relative viability: 0.329
PAC-1 + Pemetrexed; first compound 0.02 µM
  relative viability: 0.379
PAC-1 + Pemetrexed; first compound 0.06325 µM
  relative viability: 0.427
PAC-1 + Pemetrexed; first compound 0.2 µM
  relative viability: 0.418
PAC-1 + Pemetrexed; first compound 2 µM
  relative viability: 0.419

## NCI-H1755
Ibrutinib + Navitoclax; first compound 0.005 µM
  relative viability: 0.988
Ibrutinib + Navitoclax; first compound 0.01581 µM
  relative viability: 1.02
Ibrutinib + Navitoclax; first compound 0.1581 µM
  relative viability: 1.09
Ibrutinib + Navitoclax; first compound 0.5 µM
  relative viability: 0.952
Ibrutinib + OSI-027; first compound 0.005 µM
  relative viability: 0.636
Ibrutinib + OSI-027; first compound 0.01581 µM
  relative viability: 0.552
Ibrutinib + OSI-027; first compound 0.05 µM
  relative viability: 0.79
Ibrutinib + OSI-027; first compound 0.1581 µM
  relative viability: 0.81
Ibrutinib + OSI-027; first compound 0.5 µM
  relative viability: 0.777
BMX-IN-1 + Palbociclib; first compound 0.02 µM
  relative viability: 0.394
BMX-IN-1 + Palbociclib; first compound 0.2 µM
  relative viability: 0.439
BMX-IN-1 + Palbociclib; first compound 0.6325 µM
  relative viability: 0.509
BMX-IN-1 + Palbociclib; first compound 2 µM
  relative viability: 0.422
PAC-1 + Pemetrexed; first compound 0.02 µM
  relative viability: 0.442
PAC-1 + Pemetrexed; first compound 0.06325 µM
  relative viability: 0.43
PAC-1 + Pemetrexed; first compound 0.2 µM
  relative viability: 0.448
PAC-1 + Pemetrexed; first compound 2 µM
  relative viability: 0.441

## NCI-H1792
Ibrutinib + Navitoclax; first compound 0.005 µM
  relative viability: 0.669
Ibrutinib + Navitoclax; first compound 0.01581 µM
  relative viability: 0.694
Ibrutinib + Navitoclax; first compound 0.05 µM
  relative viability: 0.69
Ibrutinib + Navitoclax; first compound 0.1581 µM
  relative viability: 0.474
Ibrutinib + Navitoclax; first compound 0.5 µM
  relative viability: 0.599
Ibrutinib + OSI-027; first compound 0.01581 µM
  relative viability: 0.712
Ibrutinib + OSI-027; first compound 0.05 µM
  relative viability: 0.677
Ibrutinib + OSI-027; first compound 0.5 µM
  relative viability: 0.808
BMX-IN-1 + Palbociclib; first compound 0.2 µM
  relative viability: 0.64
BMX-IN-1 + Palbociclib; first compound 0.6325 µM
  relative viability: 1.26
BMX-IN-1 + Palbociclib; first compound 2 µM
  relative viability: 0.613
PAC-1 + Pemetrexed; first compound 0.02 µM
  relative viability: 0.712
PAC-1 + Pemetrexed; first compound 0.06325 µM
  relative viability: 0.894
PAC-1 + Pemetrexed; first compound 0.2 µM
  relative viability: 0.829
PAC-1 + Pemetrexed; first compound 2 µM
  relative viability: 0.957

## NCI-H1793
Ibrutinib + Navitoclax; first compound 0.01581 µM
  relative viability: 0.282
Ibrutinib + Navitoclax; first compound 0.05 µM
  relative viability: 0.603
Ibrutinib + Navitoclax; first compound 0.1581 µM
  relative viability: 0.498
Ibrutinib + Navitoclax; first compound 0.5 µM
  relative viability: 0.343
Ibrutinib + OSI-027; first compound 0.01581 µM
  relative viability: 0.238
Ibrutinib + OSI-027; first compound 0.05 µM
  relative viability: 0.243
Ibrutinib + OSI-027; first compound 0.1581 µM
  relative viability: 0.207
Ibrutinib + OSI-027; first compound 0.5 µM
  relative viability: 0.219
BMX-IN-1 + Palbociclib; first compound 0.02 µM
  relative viability: 0.38
BMX-IN-1 + Palbociclib; first compound 0.2 µM
  relative viability: 0.35
BMX-IN-1 + Palbociclib; first compound 0.6325 µM
  relative viability: 0.285
BMX-IN-1 + Palbociclib; first compound 2 µM
  relative viability: 0.307
PAC-1 + Pemetrexed; first compound 0.02 µM
  relative viability: 0.811
PAC-1 + Pemetrexed; first compound 0.06325 µM
  relative viability: 0.952
PAC-1 + Pemetrexed; first compound 0.2 µM
  relative viability: 0.835
PAC-1 + Pemetrexed; first compound 2 µM
  relative viability: 0.837

## NCI-H1915
Ibrutinib + Navitoclax; first compound 0.01581 µM
  relative viability: 0.767
Ibrutinib + Navitoclax; first compound 0.05 µM
  relative viability: 0.799
Ibrutinib + Navitoclax; first compound 0.1581 µM
  relative viability: 0.793
Ibrutinib + Navitoclax; first compound 0.5 µM
  relative viability: 0.795
Ibrutinib + OSI-027; first compound 0.005 µM
  relative viability: 0.557
Ibrutinib + OSI-027; first compound 0.01581 µM
  relative viability: 0.619
Ibrutinib + OSI-027; first compound 0.05 µM
  relative viability: 0.606
Ibrutinib + OSI-027; first compound 0.1581 µM
  relative viability: 0.482
Ibrutinib + OSI-027; first compound 0.5 µM
  relative viability: 0.682
BMX-IN-1 + Palbociclib; first compound 0.02 µM
  relative viability: 0.54
BMX-IN-1 + Palbociclib; first compound 0.2 µM
  relative viability: 0.543
BMX-IN-1 + Palbociclib; first compound 0.6325 µM
  relative viability: 0.555
BMX-IN-1 + Palbociclib; first compound 2 µM
  relative viability: 0.538
PAC-1 + Pemetrexed; first compound 0.02 µM
  relative viability: 0.552
PAC-1 + Pemetrexed; first compound 0.06325 µM
  relative viability: 0.471
PAC-1 + Pemetrexed; first compound 0.2 µM
  relative viability: 0.471
PAC-1 + Pemetrexed; first compound 2 µM
  relative viability: 0.473

## NCI-H1944
Ibrutinib + Navitoclax; first compound 0.005 µM
  relative viability: 0.902
Ibrutinib + Navitoclax; first compound 0.01581 µM
  relative viability: 0.985
Ibrutinib + Navitoclax; first compound 0.05 µM
  relative viability: 0.811
Ibrutinib + Navitoclax; first compound 0.1581 µM
  relative viability: 0.969
Ibrutinib + Navitoclax; first compound 0.5 µM
  relative viability: 0.689
Ibrutinib + OSI-027; first compound 0.005 µM
  relative viability: 0.331
Ibrutinib + OSI-027; first compound 0.01581 µM
  relative viability: 0.33
Ibrutinib + OSI-027; first compound 0.05 µM
  relative viability: 0.329
Ibrutinib + OSI-027; first compound 0.1581 µM
  relative viability: 0.339
Ibrutinib + OSI-027; first compound 0.5 µM
  relative viability: 0.331
BMX-IN-1 + Palbociclib; first compound 0.02 µM
  relative viability: 0.35
BMX-IN-1 + Palbociclib; first compound 0.2 µM
  relative viability: 0.357
BMX-IN-1 + Palbociclib; first compound 0.6325 µM
  relative viability: 0.327
BMX-IN-1 + Palbociclib; first compound 2 µM
  relative viability: 0.288
PAC-1 + Pemetrexed; first compound 0.02 µM
  relative viability: 0.595
PAC-1 + Pemetrexed; first compound 0.06325 µM
  relative viability: 0.65
PAC-1 + Pemetrexed; first compound 0.2 µM
  relative viability: 0.623
PAC-1 + Pemetrexed; first compound 2 µM
  relative viability: 0.627
